From PMC12703733, “Probing Guanidino Pendant or Bridged Groups in Cyclic Antimicrobial Peptides Derived from Temporin L: A Strategy to Improve Efficacy against Gram-Negative Bacteria” (Journal of Medicinal Chemistry, 2025)
Converted amounts (≈) assume the structure as drawn. Where two headings read alike, the source gives them in different places. Bridge positions count the residues as written; N and C are the ends. Square brackets hold non-standard residues; d marks the D form. Peptide text beside a SMILES is read from it.

Legend:
P. aeruginosa ATCC 27853 = experiment: microbe, parasite or virus in culture; type: cell-based; settings: ATCC 27853
Outline: (§1)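 Each MIC reflects three identical readings of four independent runs. Plates held at 37 °C after mid-log bacteria in MH medium were adjusted to 2 × 10^6 cell/mL.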

E. faecalis ATCC 29212 = experiment: microbe, parasite or virus in culture; type: cell-based; settings: ATCC 29212
Outline: as §1

A. baumannii ATCC 19606 = experiment: microbe, parasite or virus in culture; type: cell-based; settings: ATCC 19606
Outline: as §1

E. coli D21 = experiment: microbe, parasite or virus in culture; type: cell-based; settings: D21
Outline: as §1

P. aeruginosa PAO1 = experiment: microbe, parasite or virus in culture; type: cell-based; settings: PAO1
Outline: as §1

S. aureus ATCC 25923 = experiment: microbe, parasite or virus in culture; type: cell-based; settings: ATCC 25923
Outline: as §1

B. megaterium BM11 = experiment: microbe, parasite or virus in culture; type: cell-based; settings: BM11
Outline: as §1

S. agalactiae ATCC 27591 = experiment: microbe, parasite or virus in culture; type: cell-based; settings: ATCC 27591
Outline: as §1

[1] = system: S. aureus ATCC 25923 biofilm; experiment: Activity against preformed biofilm (MTT); type: cell-based; settings: concentrations below 25 μM
Description: The antibiofilm activity was evaluated as elsewhere reported. Bacteria grew at 37 °C until they reached an optical density (OD) of 0.8 (λ = 590 nm). The culture was diluted to a cell density of 1 × 10^6 colony-forming units (CFUs)/mL and aliquots of 100 μL of this suspension were dispensed into the wells of a 96-multiwell plate. After biofilm formation (incubation time = 20 h at 37 °C), all the planktonic cells were removed, and the wells were washed twice with PBS (150 μL). After washing, the wells were filled with PBS supplemented with different 2-fold serial dilutions of the tested peptides (from 50 to 1.56 μM). After peptide treatment (incubation time = 2 h at 37 °C) the wells were washed with PBS twice and filled with 150 μL of MTT (0.5 mg/mL) to evaluate biofilm viability after 4 h incubation at 37 °C. The reaction was then stopped by adding SDS (final concentration equal to 5% v/v). A microplate reader (Infinite M200; Tecan, Salzburg, Austria) was used to measure the absorbance of each well at 570 nm and the percentage of biofilm viability was calculated relative to the untreated samples.

[2] = Circular dichroism in water (BeStSel); type: physicochemical; settings: predicted from CD spectra in H2O using BeStSel
Description: The secondary structure of each peptide was studied in solution and in small unilamellar vesicles (SUVs) mimicking Gram-positive and Gram-negative membranes performing CD analysis. The CD spectrum for each peptide in solution was recorded at 150 μM, using the quartz cells of 0.1 cm path length with a Jasco J-1500 CD Spectrometer at 25 °C. SUVs at the concentration of 150 μM (P/L = 1) and […] (P/L = 0.4) were prepared as reported: the lipid film was hydrated with water for 1h and then sonicated for 30 min. CD spectra were recorded at the peptide/lipid ratio of 1:1 both in the presence with SUVs mimicking Gram-positive and Gram-negative membranes. CD spectra were recorded at 25 °C on a in a 0.1 cm quartz cell using three consecutive scans from 260 to 190 nm, 3 nm bandwidth, a time constant of 16 s, and a scan rate of 10 nm/min.

[3] = Description: The fusogenic ability of peptides was studied performing the lipid mixing experiment and evaluating a reduction in the fluorescence energy transfer efficiency between fluorophores 12-(N-methyl-N-(7-nitrobenz-2-oxa-1,3-diazol-4-yl)) (NBD) and Rhodamine (Rho) bound to liposomes. We prepared unlabeled LUVs mimicking Gram-positive and Gram-negative membranes at a concentration of 0.16 mM, and labeled LUVs mimicking Gram-positive and Gram-negative membranes with 0.6% mol of NBD-PE and 0.6% mol of Rho-PE at the concentration of 0.04 mM. LUVs were prepared as described above, and for the experiment, unlabeled and labeled LUVs were mixed at a 1:4 ratio to have final lipid concentration of 0.1 mM. The fusogenic activity of each peptide was evaluated at lipide/peptide ratio of 0.01, 0.03, 0.05, 0.1, 0.2, 0.3, 0.5, and NBD emission at 530 nm and Rho emission at 590 nm were recorded setting an NBD excitation wavelength set at 465 nm.
The percentage of fusion was calculated as a function of 100% value corresponding to complete mixing of LUVs upon the addition of Triton X-100 (0.05% v/v). The percentage fusion was calculated as [F530/F590]peptide−[F530/F590]blank/[F530/F590]triton−[F530/F590]blank×100 where F 530 and F 590 are the fluorescence intensities at 530 and 590 nm calculated in the absence and in the presence of the peptide and Triton X-100.

[4] = system: Gram-positive bacteria tested; experiment: MIC panel, Gram-positive strains (geometric mean, range); type: cell-based; settings: geometric mean of the MICs against Gram-positive bacteria tested
Description: The antimicrobial efficacy of the TLcyc analogues was assessed against a representative panel of Gram-positive and Gram-negative bacterial strains, by determining their minimal inhibitory concentrations (MIC), as summarized in Table . To provide an integrated measure of antimicrobial potency, we calculated the geometric mean (GM) of MIC values across all strains (GMall), as well as separately for Gram-positive (GMGram+) and Gram-negative (GMGram–) bacteria.
Bacterial strains used in this study were the Gram-positive S. aureus ATCC 25923, S. epidermidis ATCC 12228, B. megaterium BM11, S. agalactiae ATCC 27591, E. faecalis ATCC 29212 and the Gram-negative E. coli ATCC 25922, P. aeruginosa ATCC 27853, A. baumannii ATCC 19606, E. coli D21 and P. aeruginosa PAO1. […] Bacterial cells in the mid log phase were diluted in Muller Hinton (MH) at a concentration of 2 × 10^6 cell/mL. Aliquots of 50 μL of this bacterial suspension were added to 50 μL of MH containing serial 2-fold dilutions of the peptides (from 100 to 0.19 μM) in the wells a 96-well plate. Ciprofloxacin was used as antibiotic control. The plate was then incubated at 37 °C. MICs were obtained from three identical readings of four independent experiments.

`CC[C@H](C)[C@H](NC(=O)[C@H](CCCNC(=N)N)NC(=O)[C@H]1CCC(=O)NCCCC[C@H](NC(=O)[C@H](Cc2ccccc2)NC(=O)[C@H](Cc2c[nH]c3ccccc23)NC(=O)[C@@H]2CCCN2C(=O)[C@@H](NC(=O)[C@@H](N)Cc2ccccc2)C(C)C)C(=O)N[C@@H](CCCCN)C(=O)N[C@@H](Cc2ccccc2)C(=O)N[C@H](CC(C)C)C(=O)N1)C(=O)N[C@@H](CC(C)C)C(N)=O` [Peptide 2, FVPWF[KKFle]RIL] (H-FVPWFKKF[dL][dE]RIL-NH2; lactam 6-10) showed an MIC (P. aeruginosa ATCC 27853) of 50 µM (≈ 85.2 µg/mL), an MIC (E. faecalis ATCC 29212) of 25 µM (≈ 42.6 µg/mL) and an MIC (A. baumannii ATCC 19606) of 6.25 µM (≈ 10.7 µg/mL). The MIC (E. coli D21) was 12.5 µM (≈ 21.3 µg/mL), the MIC (P. aeruginosa PAO1) was 50 µM (≈ 85.2 µg/mL) and the MIC (S. aureus ATCC 25923) was 12.5 µM (≈ 21.3 µg/mL). The MIC (B. megaterium BM11) was 0.78 µM (≈ 1.33 µg/mL), the MIC (S. agalactiae ATCC 27591) was 3.12 µM (≈ 5.32 µg/mL) and the “antibiofilm activity (in words)” value [1] was “weaker or no activity”. For the same molecule, the “Content in water (%) random” value [2] was 55%, the “Content in water (%) α-helix” value [2] was 7% and the “Content in water (%) β-strand” value [2] was 38%. The fusion ([3]; LUVs DOPG:CL, P/L ratio of 0.3) was 100%, the fusion ([3]; LUVs DOPG:DOPE:CL, P/L ratio of 0.5) was 75% and the “geometric mean GMGram+” value [4] was 4.72 µM.
